From patent publication US7524975B2, “Peroxisome proliferator activated receptor ligand and process for producing the same” (Kaneka Corporation, priority 2001, dated 2009) come the findings set out here.

This test deals with T1, mouse PPARγ ligand-binding site (Mus musculus, UniProt P37238).
T1 construct: expressed in transfected cells; host or cells: CV-1 cells (African green monkey kidney)
T1 sequence (P37238 174-475 isoform P37238-2): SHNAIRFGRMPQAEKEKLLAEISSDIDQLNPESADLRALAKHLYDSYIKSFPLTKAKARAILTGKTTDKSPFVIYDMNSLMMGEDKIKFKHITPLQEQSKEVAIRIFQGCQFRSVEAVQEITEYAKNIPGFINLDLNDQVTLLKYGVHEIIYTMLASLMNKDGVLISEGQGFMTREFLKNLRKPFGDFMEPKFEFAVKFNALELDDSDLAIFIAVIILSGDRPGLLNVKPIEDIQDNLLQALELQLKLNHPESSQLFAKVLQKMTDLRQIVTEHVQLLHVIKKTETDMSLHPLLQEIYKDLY
Put plainly: Measurement of PPARγ ligand activity (GAL4 chimera luciferase reporter in CV-1 cells). It is filed as cell-based. The note with it: for PPARγ ligand activity: CV-1 cells, 24 hours, specific activity relative to untreated control (DMSO) = 1.00; for PPARγ ligand activity compared with positive control troglitazone (in words): compared with 0.5 μM troglitazone. The protocol: CV-1 cells (cultured cells derived from the kidney of a male African green monkey) were inoculated on a 96-well culture plate in a concentration of 6×10^3 cells/well and incubated at 37° C. in 5% CO2 for 24 hours. The medium used was DMEM (Dulbecco's Modified Eagle Medium: GIBCO) containing 10% FBS (fetal bovine serum), 10 ml/L penicillin and streptomycin solution (containing 5000 IU/ml and 5,000 μg/ml, respectively: GIBCO) and 37 mg/L ascorbic acid (Wako Pure Chemical Industries, Ltd.). […] 4xUASg-luc is a reporter plasmid comprising four GAL4 response sequences (UASg) integrated into a region upstream of a luciferase gene. At about 24 hours after transfection, the medium was exchanged with a sample-containing medium, and the cells were cultured for 24 hours (n=4). The sample-containing medium was prepared by dissolving a sample in dimethyl sulfoxide (DMSO) in an amount of 1/1000 based on the medium, while for the untreated control, DMSO in an amount of 1/1000 based on the medium was used in place of the sample. After the cells were washed with a Ca- and Mg-containing phosphate buffered physiological saline (PBS+), LucLite (Packard) was added thereto, and the intensity of luciferase luminescence was measured with a TopCount microplate scintillation/luminescence counter (Packard).
As the control group, pM (plasmid from which the PPARγ ligand-binding site gene was removed) was measured in place of pM-mPPARγ in the same manner as for the measurement group. For each sample, the ratio (measurement group/control group) of the average luminescence intensity of the measurement group (n=4) to that of the control group was calculated, and the specific activity relative to the activity of the untreated control was regarded as the PPARγ ligand activity of the sample.

`COc1c(CC=C(C)C)c(O)cc2oc(=O)c(-c3ccc(O)cc3O)cc12` [Compound 1, Glycycoumarin]: the PPARγ ligand activity (added concentration 2 μg/ml) stood at 2.03, the PPARγ ligand activity (added concentration 5 μg/ml) amounted to 2.79 and the PPARγ ligand activity (added concentration 10 μg/ml) is listed as 3.82.
As for `CC(C)=CCc1cc(-c2coc3c(CC=C(C)C)c(O)cc(O)c3c2=O)cc(O)c1O` [Compound 3, Glyurallin B], the PPARγ ligand activity is, setting by setting: (added concentration 2 μg/ml) 1.28; (added concentration 5 μg/ml) 1.96; (added concentration 10 μg/ml) 2.73.
On the same counts, the results for `COc1cc2c(c(OC)c1CC=C(C)C)C=C(c1ccc(O)cc1O)CO2` [Compound 4, 3-(2′,4′-dihydroxyphenyl)-6-(3″,3″-dimethylallyl)-5,7-dimethoxy-2H-chromene] are 2.95, 3.72 and 4.00.
As for `COc1cc(O)ccc1/C=C/C(=O)c1ccc(O)cc1` [Compound 5, Echinatin], the PPARγ ligand activity worked out at 1.45 (added concentration 2 μg/ml), 2.35 (added concentration 5 μg/ml) and 2.49 (added concentration 10 μg/ml).
In the case of `CC(C)=CCc1cc(-c2oc3cc(O)cc(O)c3c(=O)c2O)ccc1O` [Compound 6, Isolicoflavonol], the PPARγ ligand activity by setting is: (added concentration 2 μg/ml) 1.73; (added concentration 5 μg/ml) 2.50; (added concentration 10 μg/ml) 3.82.
For `COc1c2c(cc(O)c1CC=C(C)C)OCC(c1ccc(O)cc1O)=C2` [Compound 7, Dehydroglyasperin C], in that order: 2.90, 3.73 and 4.41.
The compound `COc1cc2c(c(O)c1CC=C(C)C)C(=O)C(c1ccc(O)cc1O)CO2` (centres unmarked) [Compound 8, Glyasperin B] came in with a PPARγ ligand activity (added concentration 2 μg/ml) of 2.60, a PPARγ ligand activity (added concentration 5 μg/ml) of 3.53 and a PPARγ ligand activity (added concentration 10 μg/ml) of 3.02.
`COc1cc(O)cc2c1C(=O)C(c1cc(O)c3c(c1)C=CC(C)(C)O3)CO2` (centres unmarked) [Compound 9, Glycyrrhisoflavanone] registered a PPARγ ligand activity (added concentration 2 μg/ml) of 2.01, a PPARγ ligand activity (added concentration 5 μg/ml) of 3.45 and a PPARγ ligand activity (added concentration 10 μg/ml) of 4.68.
As to `CC(C)=CCc1c(O)cc(O)c2c(=O)c(-c3ccc(O)cc3)coc12` [Compound 10, Lupiwighteone], the PPARγ ligand activity by setting is: (added concentration 2 μg/ml) 1.67; (added concentration 5 μg/ml) 2.53; (added concentration 10 μg/ml) 3.75.
On the same counts, the results for `COc1cc2c(c(OC)c1CC=C(C)C)CC(c1ccc(O)cc1O)CO2` (centres unmarked) [Compound 11, Glyasperin D] are 3.22, 3.28 and 4.06.
On the same counts, the results for `CC1(C)C=Cc2cc(-c3coc4cc(O)cc(O)c4c3=O)cc(O)c2O1` [Compound 12, Semilicoisoflavone B] are 1.86, 2.66 and 3.15.
Turning to `O=C(/C=C/c1ccc(O)cc1)c1ccc(O)cc1O` [Compound 13, Isoliquiritigenin], the PPARγ ligand activity reads like this: (added concentration 2 μg/ml) 1.47; (added concentration 5 μg/ml) 2.71; (added concentration 10 μg/ml) 3.39.
Regarding `COc1c(-c2ccc(O)cc2)oc2cc(O)cc(O)c2c1=O` [Compound 14, Kaempferol3-O-methylester], the PPARγ ligand activity amounted to 1.86 (added concentration 2 μg/ml), 2.37 (added concentration 5 μg/ml) and 3.47 (added concentration 10 μg/ml).
For the compound `CC(C)=CCc1c(O)cc2oc(-c3ccc(O)cc3)c(O)c(=O)c2c1O` [Compound 15, Licoflavonol], the PPARγ ligand activity was found to be 1.44 (added concentration 2 μg/ml), 2.27 (added concentration 5 μg/ml) and 4.07 (added concentration 10 μg/ml).
Turning to `COc1c(-c2ccc(O)cc2)oc2cc(O)c(CC=C(C)C)c(O)c2c1=O` [Compound 16, Topazolin], the PPARγ ligand activity is recorded as 2.56 (added concentration 2 μg/ml), 3.64 (added concentration 5 μg/ml) and 5.84 (added concentration 10 μg/ml).
As to `CC(C)=CCc1cc(-c2coc3cc(O)cc(O)c3c2=O)cc(O)c1O` [Compound 17, Glycyrrhisoflavone], the PPARγ ligand activity is 1.78 (added concentration 2 μg/ml), 3.05 (added concentration 5 μg/ml) and 3.20 (added concentration 10 μg/ml).
On to `CC1(C)C=Cc2c(ccc3c2OC[C@@H](c2ccc(O)cc2O)C3)O1` [Compound 18, Glabridin], for which the PPARγ ligand activity is 1.64 (added concentration 2 μg/ml), 2.15 (added concentration 5 μg/ml) and 1.98 (added concentration 10 μg/ml).
As for `CC1(C)C=Cc2c(O)ccc(C3=Cc4ccc(O)cc4OC3)c2O1` [Compound 19, Glabrene], the PPARγ ligand activity (added concentration 2 μg/ml) turned out to be 1.78, the PPARγ ligand activity (added concentration 5 μg/ml) came out at 3.44 and the PPARγ ligand activity (added concentration 10 μg/ml) was 2.89.
For the compound `CC1(C)C=Cc2c(ccc(C3COc4c(ccc5c4C=CC(C)(C)O5)C3)c2O)O1` (centres unmarked) [Compound 20, Hispaglabridin B], the “PPARγ ligand activity compared with positive control troglitazone (in words)” value was “slightly weaker than that of a positive control containing 0.5 μM troglitazone”. This compound also gave a PPARγ ligand activity (added concentration 2 μg/ml) of 1.04. Where the note is “added concentration 5 μg/ml”, this compound returned a PPARγ ligand activity of 1.45. Besides, the PPARγ ligand activity (added concentration 10 μg/ml) is 1.94.
`COc1ccc(C2COc3c(ccc4c3C=CC(C)(C)O4)C2)c(O)c1` (centres unmarked) [Compound 21, 4′-O-Methylglabridin]: the PPARγ ligand activity is 1.25 (added concentration 2 μg/ml), 1.55 (added concentration 5 μg/ml) and 2.13 (added concentration 10 μg/ml).
`COc1ccc(C2COc3c(ccc4c3C=CC(C)(C)O4)C2)c(O)c1O` (centres unmarked) [Compound 22, 3′-Hydroxyl-4′-O-methylglabridin] yielded a PPARγ ligand activity (added concentration 2 μg/ml) of 1.61, a PPARγ ligand activity (added concentration 5 μg/ml) of 2.46 and a PPARγ ligand activity (added concentration 10 μg/ml) of 1.69.
`CC(C)=CCc1cc([C@@H]2CC(=O)c3ccc(O)c(CC=C(C)C)c3O2)ccc1O` [Compound 23, Glabrol]: the PPARγ ligand activity came to 1.85 (added concentration 2 μg/ml), 3.48 (added concentration 5 μg/ml) and 3.74 (added concentration 10 μg/ml).
With `C=CC(C)(C)c1cc(/C=C/C(=O)c2ccc(O)cc2)c(OC)cc1O` [Compound 24, Licochalcone A], the PPARγ ligand activity is, setting by setting: (added concentration 2 μg/ml) 4.02; (added concentration 5 μg/ml) 4.14; (added concentration 10 μg/ml) 4.16.
Regarding `COc1c(/C=C/C(=O)c2ccc(O)cc2)ccc(O)c1O` [Compound 25, Licochalcone B], the “PPARγ ligand activity compared with positive control troglitazone (in words)” value is “slightly weaker than that of a positive control containing 0.5 μM troglitazone”. For the same compound, the PPARγ ligand activity (added concentration 2 μg/ml) is given as 1.27. This compound also displayed a PPARγ ligand activity (added concentration 5 μg/ml) of 1.93. The compound further returned a PPARγ ligand activity (added concentration 10 μg/ml) of 1.61.
Regarding `COc1c(/C=C/C(=O)c2ccc(O)cc2)ccc(O)c1CC=C(C)C` [Compound 26, Licochalcone C], the PPARγ ligand activity reads like this: (added concentration 2 μg/ml) 1.84; (added concentration 5 μg/ml) 2.20; (added concentration 10 μg/ml) 3.71.
On the same counts, the results for `CC(C)=CCc1cc(C(=O)CC(=O)c2cc(CC=C(C)C)c(O)cc2O)ccc1O` [Compound 27, Glycyrdione A] are 1.44, 2.49 and 3.05.
